{"source": "patent US20120052061A1", "about": "“THERAPIES FOR TREATING CANCER USING COMBINATIONS OF COX-2 INHIBITORS AND ANTI-HER2(ERBB2) ANTIBODIES OR COMBINATIONS OF COX-2 INHIBITORS AND HER2(ERBB2) RECEPTOR TYROSINE KINASE INHIBITORS” (Tragara Pharmaceuticals Inc., priority 2007, published 2012)", "key": {"[1]": {"details": "human, in vivo"}, "BT474 tumor": {"test_system": "BT474 tumor", "test": "BT474 model, tumor growth delay study (Example 9);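 note: female SCID mice bearing subcutaneous flank BT474 xenografts, oral gavage dosing started at 100-200 mg tumors, caliper volume twice weekly, endpoint tumor 0.75 g or 90 days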", "details": "po, qd to end", "quoted_text": "Female SCID mice were injected subcutaneously in the flank (1 mm^3 BT474 tumor) and tumor volume was evaluated using a caliper twice a week for up to 90 days, longer for responders. Upon reaching an average tumor size of 100-200 mg the treatment was begun. Celecoxib and 2-(4-ethoxyphenyl)-4-methyl-1-(4-sulfamoylphenyl)-pyrrole were both formulated as a solution in 1% carboxymethyl cellulose/water and dosed orally by gavage. […] The endpoint for the study was when tumor volume reached 0.75 gms or 90 days, which ever came first."}, "MCF-7 tumor": {"test_system": "MCF-7 tumor", "details": "for tolerability: mouse, in vivo", "quoted_text": "Upon reaching an average tumor size of 100-200 mg the treatment was begun. Celecoxib and 2-(4-ethoxyphenyl)-4-methyl-1-(4-sulfamoylphenyl)-pyrrole were both formulated as a solution in 1% carboxymethyl cellulose/water and dosed orally by gavage. The endpoint for the study was when tumor volume reached 0.75 gms or 90 days, which ever came first."}, "[2]": {"details": "rat, in vivo"}, "[3]": {"details": "human, in vivo, po", "protocol": "(§1) Peak plasma concentrations were achieved between 1 and 3 hours after a dose of 5 mg/kg."}, "[4]": {"test": "oral pharmacokinetics, all species examined", "type": "in vivo, mice, rats, dogs, and monkeys", "details": "orally administered", "protocol": "as §1"}, "[5]": {"test": "oral pharmacokinetics in monkeys", "type": "in vivo", "protocol": "as §1"}, "[6]": {"test": "oral pharmacokinetics in rodents", "type": "in vivo, rodents (mice, rats)", "protocol": "as §1"}, "[7]": {"details": "in vivo"}, "[8]": {"details": "dog, in vivo"}, "[9]": {"test": "oral pharmacokinetics in dogs", "type": "in vivo", "protocol": "as §1"}, "[10]": {"test_system": "human breast cancer cells (SK-BR-3)", "test": "SK-BR-3 model (Example 8)", "type": "in vivo, nude mice", "details": "trastuzumab intravenously", "quoted_text": "Mice are injected subcutaneously in the left paw (1×10^6 tumor cells suspended in 30% Matrigel) and tumor volume is evaluated using a phlethysmometer twice a week for 30-60 days. Implantation of human breast cancer cells (SK-BR-3) into nude mice produces tumors that will reach 0.6-2 ml between 30-50 days. […] The data is expressed as the mean+/−SEM. Student's and Mann-Whitney tests are used to assess differences between means using the InStat software package.\nThe efficacy of both agents are determined by measuring tumor volume.\nB. In a second assay, mice injected with SK-BR-3 cancer cells are then treated with 5-FU on days 12 through 15. […] The efficacy of both agents are determined by measuring tumor volume."}, "[11]": {"details": "Groups 2 and 6: single agent 100 mg/kg"}, "[12]": {"details": "Groups 3 and 7: single agent 30 mg/kg"}, "[13]": {"details": "Groups 3 and 9: 30 mg/kg, po, daily"}, "[14]": {"details": "Groups 4 and 10: 10 mg/kg, po, daily"}, "[15]": {"details": "Groups 5 and 11: 3 mg/kg, po, daily"}, "[16]": {"details": "Groups 6 and 12: 1 mg/kg, po, daily"}, "[17]": {"details": "third assay (C): 5-FU i.p 50 mg/kg on days 14 through 17, COX-2 inhibitor in the diet"}, "[18]": {"details": "Group 5: single agent 300 mg/kg"}}, "note": "Like-named read-outs stand apart in the source and are kept apart here.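 Throughout, for active as a single agent in MCF-7: mouse MCF-7 tumor model, oral gavage dosing started once mean tumor size reached 100-200 mg, endpoint at tumor volume 0.75 g or 90 days, whichever occurred earlier.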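 Throughout, for tolerability: mouse MCF-7 tumor model, oral gavage dosing started once mean tumor size reached 100-200 mg, endpoint at tumor volume 0.75 g or 90 days, whichever occurred earlier.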", "data": [{"smiles": "CCOc1ccc(-c2cc(C)cn2-c2ccc(S(N)(=O)=O)cc2)cc1", "values": [{"measurement": "gastric or duodenal toxicity compared to placebo", "setting": "[1]", "result": "no increase in gastric or duodenal toxicity"}, {"measurement": "% tumor growth delay", "setting": "BT474 tumor; Group 4: single agent 10 mg/kg", "result": "−22", "unit": "%"}, {"measurement": "Difference from control", "setting": "BT474 tumor; Group 4: single agent 10 mg/kg", "result": "−8.5"}, {"measurement": "Median Total Time to Endpoint", "setting": "BT474 tumor; Group 4: single agent 10 mg/kg", "result": 29.7, "unit": "days"}, {"measurement": "Regressions: CR (complete regressions)", "setting": "BT474 tumor; Group 4: single agent 10 mg/kg", "result": "0/0/0"}, {"measurement": "Regressions: PR (partial regressions)", "setting": "BT474 tumor; Group 4: single agent 10 mg/kg", "result": "0/0/0"}, {"measurement": "Regressions: TFS (tumor free survivors)", "setting": "BT474 tumor; Group 4: single agent 10 mg/kg", "result": "0/0/0"}, {"measurement": "% tumor growth delay", "setting": "BT474 tumor; [11]", "result": "−14", "unit": "%"}, {"measurement": "Difference from control", "setting": "BT474 tumor; [11]", "result": "−5.5"}, {"measurement": "Median Total Time to Endpoint", "setting": "BT474 tumor; [11]", "result": 32.7, "unit": "days"}, {"measurement": "Regressions: CR (complete regressions)", "setting": "BT474 tumor; [11]", "result": "0/0/0"}, {"measurement": "Regressions: PR (partial regressions)", "setting": "BT474 tumor; [11]", "result": "0/0/0"}, {"measurement": "Regressions: TFS (tumor free survivors)", "setting": "BT474 tumor; [11]", "result": "0/0/0"}, {"measurement": "% tumor growth delay", "setting": "BT474 tumor; [12]", "result": "−16", "unit": "%"}, {"measurement": "Difference from control", "setting": "BT474 tumor; [12]", "result": "−6.2"}, {"measurement": "Median Total Time to Endpoint", "setting": "BT474 tumor; [12]", "result": 32.0, "unit": "days"}, {"measurement": "Regressions: CR (complete regressions)", "setting": "BT474 tumor; [12]", "result": "0/0/0"}, {"measurement": "Regressions: PR (partial regressions)", "setting": "BT474 tumor; [12]", "result": "0/0/0"}, {"measurement": "Regressions: TFS (tumor free survivors)", "setting": "BT474 tumor; [12]", "result": "0/0/0"}, {"measurement": "Difference from control", "setting": "MCF-7 tumor; Group 7: 0.3 mg/kg, po, daily", "result": 2.0}, {"measurement": "Median Total Time to Endpoint", "setting": "MCF-7 tumor; Group 7: 0.3 mg/kg, po, daily", "result": 7.5, "unit": "days"}, {"measurement": "Difference from control", "setting": "MCF-7 tumor; [13]", "result": 2.5}, {"measurement": "Median Total Time to Endpoint", "setting": "MCF-7 tumor; [13]", "result": 8.0, "unit": "days"}, {"measurement": "Difference from control", "setting": "MCF-7 tumor; [14]", "result": 1.8}, {"measurement": "Median Total Time to Endpoint", "setting": "MCF-7 tumor; [14]", "result": 7.3, "unit": "days"}, {"measurement": "Difference from control", "setting": "MCF-7 tumor; [15]", "result": 1.3}, {"measurement": "Median Total Time to Endpoint", "setting": "MCF-7 tumor; [15]", "result": 6.8, "unit": "days"}, {"measurement": "Difference from control", "setting": "MCF-7 tumor; [16]", "result": 1.6}, {"measurement": "Median Total Time to Endpoint", "setting": "MCF-7 tumor; [16]", "result": 7.1, "unit": "days"}, {"measurement": "tolerability", "setting": "MCF-7 tumor; po", "result": "well-tolerated"}, {"measurement": "active as a single agent in MCF-7", "setting": "MCF-7 tumor; single agent, po, daily", "result": "Neither"}, {"measurement": "minimum lethal dose", "setting": "[2]", "result": 600, "unit": "mg/kg"}, {"measurement": "dose exposure relationship", "setting": "[3]", "result": "linear dose exposure relationship"}, {"measurement": "absorption", "setting": "[4]", "result": "rapidly absorbed"}, {"measurement": "Oral availability", "setting": "[5]", "result": 34, "unit": "%"}, {"measurement": "half-life", "setting": "[6]; mice, rats, plasma, 5 mg/kg, rodents, oral, read-out: elimination half life (t1/2)", "result": "4 to 5", "unit": "h"}, {"measurement": "Oral availability", "setting": "[6]; rodent", "result": "greatest"}, {"measurement": "toxicological findings", "setting": "[7]", "result": "expected findings related to inhibition of cyclooxygenase"}, {"measurement": "minimum lethal dose", "setting": "[8]", "result": "> 2000", "unit": "mg/kg"}, {"measurement": "Oral availability", "setting": "[9]", "result": 59, "unit": "%"}]}, {"smiles": "O=c1[nH]cc(F)c(=O)[nH]1", "note": "[5-FU, 5-fluorouracil]", "values": [{"measurement": "reduction of tumor volume", "setting": "[10]; second assay (B): 5-FU i.p 50 mg/kg on days 12, 13, 14, and 15, pyrrole in the diet", "result": 61, "unit": "%"}, {"measurement": "reduction of tumor volume", "setting": "[10]; [17]", "result": 35, "unit": "%"}]}, {"smiles": "Cc1ccc(-c2cc(C(F)(F)F)nn2-c2ccc(S(N)(=O)=O)cc2)cc1", "note": "[celecoxib, reference compound]", "values": [{"measurement": "% tumor growth delay", "setting": "BT474 tumor; [18]", "result": "−4", "unit": "%"}, {"measurement": "Difference from control", "setting": "BT474 tumor; [18]", "result": "−1.6"}, {"measurement": "Median Total Time to Endpoint", "setting": "BT474 tumor; [18]", "result": 36.6, "unit": "days"}, {"measurement": "Regressions: CR (complete regressions)", "setting": "BT474 tumor; [18]", "result": "0/0/0"}, {"measurement": "Regressions: PR (partial regressions)", "setting": "BT474 tumor; [18]", "result": "0/0/0"}, {"measurement": "Regressions: TFS (tumor free survivors)", "setting": "BT474 tumor; [18]", "result": "0/0/0"}, {"measurement": "% tumor growth delay", "setting": "BT474 tumor; [11]", "result": "−4", "unit": "%"}, {"measurement": "Difference from control", "setting": "BT474 tumor; [11]", "result": "−1.4"}, {"measurement": "Median Total Time to Endpoint", "setting": "BT474 tumor; [11]", "result": 36.8, "unit": "days"}, {"measurement": "Regressions: CR (complete regressions)", "setting": "BT474 tumor; [11]", "result": "0/0/0"}, {"measurement": "Regressions: PR (partial regressions)", "setting": "BT474 tumor; [11]", "result": "0/0/0"}, {"measurement": "Regressions: TFS (tumor free survivors)", "setting": "BT474 tumor; [11]", "result": "0/0/0"}, {"measurement": "Regressions: CR (complete regressions)", "setting": "BT474 tumor; [12]", "result": "0/0/0"}, {"measurement": "Regressions: PR (partial regressions)", "setting": "BT474 tumor; [12]", "result": "0/0/0"}, {"measurement": "Regressions: TFS (tumor free survivors)", "setting": "BT474 tumor; [12]", "result": "0/0/0"}, {"measurement": "Difference from control", "setting": "MCF-7 tumor; Group 8: 100 mg/kg, po, daily", "result": 1.6}, {"measurement": "Median Total Time to Endpoint", "setting": "MCF-7 tumor; Group 8: 100 mg/kg, po, daily", "result": 7.1, "unit": "days"}, {"measurement": "Difference from control", "setting": "MCF-7 tumor; [13]", "result": 2.1}, {"measurement": "Median Total Time to Endpoint", "setting": "MCF-7 tumor; [13]", "result": 7.6, "unit": "days"}, {"measurement": "Difference from control", "setting": "MCF-7 tumor; [14]", "result": 2.1}, {"measurement": "Median Total Time to Endpoint", "setting": "MCF-7 tumor; [14]", "result": 7.6, "unit": "days"}, {"measurement": "Difference from control", "setting": "MCF-7 tumor; [15]", "result": 1.4}, {"measurement": "Median Total Time to Endpoint", "setting": "MCF-7 tumor; [15]", "result": 6.9, "unit": "days"}, {"measurement": "Difference from control", "setting": "MCF-7 tumor; [16]", "result": 1.7}, {"measurement": "Median Total Time to Endpoint", "setting": "MCF-7 tumor; [16]", "result": 7.2, "unit": "days"}, {"measurement": "tolerability", "setting": "MCF-7 tumor; po", "result": "well-tolerated"}]}, {"smiles": "O=P1(N(CCCl)CCCl)NCCCO1", "note": "(centres unmarked) [cyclophosphamide]", "values": [{"measurement": "Difference from control", "setting": "MCF-7 tumor; Group 2: 112 mg/kg Q4D×3", "result": 9.2}, {"measurement": "Median Total Time to Endpoint", "setting": "MCF-7 tumor; Group 2: 112 mg/kg Q4D×3", "result": 14.7, "unit": "days"}]}, {"smiles": "Cc1onc(-c2ccccc2)c1-c1ccc(S(N)(=O)=O)cc1", "note": "[valdecoxib]", "values": [{"measurement": "reduction of tumor volume", "setting": "[10]; [17]", "result": 69, "unit": "%"}]}]}
